From ChEMBL document CHEMBL3507680, “University of Dundee, Gates Library screen for HepG2 cell viability”

assay: Human HepG2 cell viability assay in 384 well format; type: toxicity, cell-based; parameters: dose 125 nL, time 70.5 hour; cytotoxicity at 70.5 h: concentration not given beside the values; details: HepG2 cells, read-out: Inhibition

Row | Structure (SMILES) | cytotoxicity at 70.5 h [%]
1 | c1ccc(Cn2ccnc2CN2CCOC(Cn3cccn3)C2)cc1 (stereo not given) | 2.05
2 | COc1ccccc1OC1CCN(C(=O)C2CCCN(C)C2)CC1 (stereo not given) | -8.14
3 | Cc1ccnc(NC(=O)C2(n3cnnn3)CCCCC2)c1 | -23.1
4 | CSc1ccc(-c2nc(CN3CCNCC3C)c(C)o2)cc1 (stereo not given) | 3
5 | Cc1noc(CN(C)CC(c2cccs2)N2CCOCC2)n1 (stereo not given) | -4.96
6 | CCn1cc(S(=O)(=O)NC2CCCN(CCCc3ccccc3)C2)cn1 (stereo not given) | -1
7 | COc1ccc(CNC(=O)NC2CCN(CC3CCCC3)CC2)cn1 | -9.34
8 | CCc1n[nH]c(C2CN(CC(=O)NCCc3ccsc3)CCO2)n1 (stereo not given) | -3.93
9 | COCCCN1CC2(CCC1=O)CCN(Cc1cc(C(C)C)no1)CC2 | 29.5
10 | CN(Cc1cc[nH]n1)C(C(=O)O)c1ccc(Cl)cc1 (stereo not given) | -4.85
11 | O=C(c1c(F)cccc1F)N1CCOCC1 | 18.9
12 | CCC(C)NC(=O)c1ccc(NC(=O)CCc2ccncc2)c(C)c1 (stereo not given) | -3.96
13 | O=C(NCCc1c[nH]c2ccc(F)cc12)C1(n2cnnn2)CCCCC1 | -22.2
14 | Cc1ccc(C(=O)N2CCN(C(=O)NC(C)Cn3ccnc3)CC2)o1 (stereo not given) | -4.96
15 | Cc1[nH]c2ccccc2c1-c1ccnc(NCCN2CCCCC2)n1 | -3.28
16 | O=C(NCc1cn2cccnc2n1)C1CC(=O)N(Cc2ccccn2)C1 (stereo not given) | -6.73
17 | COCCn1cnnc1Cn1ccnc1-c1ccccc1C | 1.73
18 | O=C(C1CCCC1)N1CCC(c2ccnc(Nc3cnccn3)n2)C1 (stereo not given) | 15
19 | CCCNC(=O)Cn1c(-n2nc(C)cc2C)nc(CCC)cc1=O | 3.03
20 | Cc1ccc(CN(CCCn2ccnc2)Cc2cnn(C)c2)s1 | 25.9
21 | Cc1nc(C2CCCN2CCc2ccccn2)no1 (stereo not given) | -5.46
22 | O=C(C1CCCO1)N1CCC2(CC1)COCCN2CC1CC1 (stereo not given) | 2.48
23 | Cc1ccc(C(=O)N2CC[C@H]3O[C@@H](c4noc(C)n4)C[C@H]3C2)o1 | -8.48
24 | CCN(CC1CCOCC1)C(=O)Cn1cccc(C(F)(F)F)c1=O | -7.19
25 | O=C(NCCN1CCOCC1)c1ccn(-c2ccccc2F)n1 | -2.56
26 | CCOc1ncccc1CN1Cc2ncccc2C1=O | -6.82
27 | COc1ccc(Cn2c(C3CCNCC3)cc3cccnc32)cc1 | 3.16

Row | Structure (SMILES) | cytotoxicity at 70.5 h [%]
28 | N#Cc1cccc(NC2CC(=O)N(CCc3ccc(F)cc3)C2)n1 (stereo not given) | 28.1
29 | O=C(c1ncoc1C1CCCO1)N1CCCC2(CCCCC2)C1 (stereo not given) | -2.37
30 | CO[C@@H]1CCC[C@@H](NC(=O)c2cccc(F)c2)[C@H]1O | -1.9
31 | O=C1[C@@H]2CCN(Cc3ccoc3)C[C@@H]2OCCN1Cc1cccc(F)c1 | -4.35
32 | Cn1cccc1CN1CCC2(CC1)CC(Oc1cccnc1)C2 | 6.62
33 | Cc1ccc(S(=O)(=O)NCC(C)C#N)cc1Br (stereo not given) | -4.59
34 | COCC(c1cccc(C(F)(F)F)c1)N(C)C(=O)c1cccnc1 (stereo not given) | -1.51
35 | CC(C)c1nnc2n1CC(CNCc1nc3ccccc3s1)CC2 (stereo not given) | 21.9
36 | COc1c(C2CCCN2C(=O)c2cccnc2N(C)C)c(C)nn1C (stereo not given) | 0.616
37 | CC(C)(C)c1cn2nc(N3CCCC3Cn3cccn3)sc2n1 (stereo not given) | 0.173
38 | CCOC(=O)CNc1nc(C(C)(C)C)nc2c1cnn2C | 1.33
39 | COCCn1cc2c(n1)C(CNCc1ccco1)OCC2 (stereo not given) | 22.8
40 | CN(CCc1ccccc1)c1cnn(CC(=O)N2CCSCC2)c(=O)c1 | -3.48
41 | O=S(=O)(c1ccc(Cl)cc1)N1CCC(OCc2ccccn2)C1 (stereo not given) | 2.04
42 | CC(O)CN1CCc2[nH]nc(C(c3ccccc3)c3ccccc3)c2C1 (stereo not given) | -5.7
43 | Cc1nc2n(n1)CC(NCc1nc(-c3cccs3)no1)CC2 (stereo not given) | 0.591
44 | Cc1ccc(Oc2ncccc2C(=O)O)c(C)c1 | -4.94
45 | O=C(N[C@@H]1CN(Cc2ccccn2)[C@@H]2COC[C@@H]21)C1CCC1 | -1.02
46 | Cc1ncnc2c1CCN(c1ccccn1)CC2 | -14
47 | O=C(c1coc(CN2CCN(c3ccccc3F)CC2)n1)N1CC=CC1 | 15.2
48 | CC(=O)N1CCCC2(CCN(C(=O)c3nn(C)c4ccccc34)CC2)C1 | 29.2
49 | CCn1cc(-c2cc(-c3cc(CC(=O)O)cs3)nc(N)c2C#N)c(C)n1 | -0.397
50 | COc1ccc(-c2n[nH]cc2CN(C)Cc2ccoc2)c(F)c1 | -1.92
51 | CCCc1noc(CCC(=O)Nc2cc(C(F)(F)F)c[nH]c2=O)n1 | -6.41
52 | COc1ccccc1OC1CCN(C(=O)CCCn2ccnc2)CC1 | -6.19
53 | Cc1noc(-c2c[nH]nc2C2CCCN2C(=O)c2ccccc2)c1C (stereo not given) | -4.46
54 | Cc1csc(C2CCCCN2C(=O)c2cnn3ccc(C)nc23)n1 (stereo not given) | -18.6

Row | Structure (SMILES) | cytotoxicity at 70.5 h [%]
55 | O=S1(=O)C[C@@H]2[C@H](C1)N(Cc1cc(F)cc(F)c1)CCN2CCO | -1.64
56 | CC[C@H]1CN(C(=O)c2ccc(-n3cnnc3)nc2)CC[C@@]1(C)O | 36
57 | CS(=O)(=O)N1CCOCC2(CCN(Cc3ccoc3)CC2)C1 | -3.92
58 | Cn1cc(CN2CCCC(c3nc(O)cc(-c4cccs4)n3)C2)cn1 (stereo not given) | -6.31
59 | Cc1nnc(N2CCCC3(CN(Cc4nccn4C)CCO3)C2)o1 (stereo not given) | -0.85
60 | CN(C)S(=O)(=O)N1CCO[C@H]2[C@H](Oc3cccnc3)CC[C@@H]21 | -3.81
61 | Cc1ncsc1CCN1CCC(N(C)Cc2noc(C(C)C)n2)C1 (stereo not given) | 6.17
62 | Cc1ncsc1C(=O)Nc1ccccn1 | -6.03
63 | Cc1ccc(C(=O)NCCC2CN(c3cnn(C)c(=O)c3)CCO2)s1 (stereo not given) | -3.44
64 | Cn1ccc2cc(CC3COCCN(C(=O)c4ccccn4)C3)ccc21 (stereo not given) | -6.94
65 | CSCC[C@H](NC(C)=O)c1nc(CC(C)C)n[nH]1 | 7.09
66 | Cc1nccnc1N1C[C@H](NC(=O)CNS(C)(=O)=O)[C@@H](C2CC2)C1 | -3.36
67 | CN(Cc1ccc2nonc2c1)C(=O)CCc1cc2n(n1)CCCNC2 | -6.8
68 | OC1CCCN(Cc2ccnc(-c3cccnc3)n2)C1 (stereo not given) | -4.64
69 | CCN(CC(=O)N(C)C)C(=O)c1nc(C)n(-c2ccccc2Cl)n1 | -0.577
70 | CC(O)CN(C)C(=O)Nc1ccn(-c2cccc(C(F)(F)F)c2)n1 (stereo not given) | -3.19
71 | COc1nn(C)cc1C(=O)NCC(=O)NCc1ccccn1 | -11
72 | CCC(=O)N1CCN(Cc2cnc(C)nc2)[C@H]2CS(=O)(=O)C[C@H]21 | 12.9
73 | CN(C)CCN1C[C@@H]2CN(C(=O)c3ccsc3)C[C@@H]2C1=O | -2.41
74 | O=C(CNc1ccc(F)cc1OCC(F)(F)F)NCc1ccco1 | -10.6
75 | CN(C)C(=O)N1C[C@H]2CN(Cc3cccc(F)c3)C(=O)[C@H]2C1 | -9.2
76 | Cc1ccc(C(=O)NCC(O)c2ccc(Cl)s2)c(=O)[nH]1 (stereo not given) | -23.1
77 | Cc1cccnc1NCCNC(=O)c1cnc(-c2cccs2)nc1O | -0.575
78 | Cn1cc(CN2CCCC23CCN(C(=O)c2ccccc2)CC3)cn1 | -11.9
79 | COCCC(=O)N1CCCC2(CCN(c3ccccc3)C2=O)C1 (stereo not given) | -11
80 | COCC(NC1CCSCC1)c1ccnn1C (stereo not given) | 21.8
